Results from US11046694B2, “Compounds and methods for treating bacterial infections” (Entasis Therapeutics, Inc., priority 2018, dated 2021).
≈ marks a conversion by molar mass, not a printed value. Where a name gives a salt, the structure may show the parent alone.

Columns and labels:
P. aeruginosa PBP1a = P. aeruginosa PBP1a (Pseudomonas aeruginosa, UniProt Q07806); format: biochemical; conditions: P. aeruginosa PBP1a 60 nM, BOCILLIN FL 30 nM, pH 7.0
P. aeruginosa PBP3 = P. aeruginosa PBP3 (Pseudomonas aeruginosa, UniProt G3XD46); format: biochemical; conditions: P. aeruginosa PBP3 60 nM, BOCILLIN FL 30 nM, pH 7.0
Chain of P. aeruginosa PBP3 (G3XD46 whole entry): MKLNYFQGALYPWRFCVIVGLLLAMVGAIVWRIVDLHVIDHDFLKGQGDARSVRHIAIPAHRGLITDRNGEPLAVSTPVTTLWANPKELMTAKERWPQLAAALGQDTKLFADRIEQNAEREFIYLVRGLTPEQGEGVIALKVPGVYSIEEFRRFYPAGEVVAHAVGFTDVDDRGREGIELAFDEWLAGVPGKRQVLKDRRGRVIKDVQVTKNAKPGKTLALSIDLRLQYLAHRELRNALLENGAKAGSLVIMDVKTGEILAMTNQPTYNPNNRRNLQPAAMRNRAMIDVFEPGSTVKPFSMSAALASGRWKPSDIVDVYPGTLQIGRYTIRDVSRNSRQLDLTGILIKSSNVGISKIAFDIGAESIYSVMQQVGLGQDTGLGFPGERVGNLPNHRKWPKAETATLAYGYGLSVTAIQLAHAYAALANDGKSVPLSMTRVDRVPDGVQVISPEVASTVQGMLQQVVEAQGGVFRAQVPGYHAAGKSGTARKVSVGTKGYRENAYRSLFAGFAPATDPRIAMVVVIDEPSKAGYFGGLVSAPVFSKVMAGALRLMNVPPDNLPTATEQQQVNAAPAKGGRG

P. aeruginosa WT (PAO1) = test: MIC, CLSI broth microdilution, P. aeruginosa; format: cell-based; conditions: Pseudomonas aeruginosa, PAO1; CLSI broth microdilution; read-out: P. aeruginosa WT (PAO1) MIC
E. coli (ATCC25922) = test: MIC against E. coli; conditions: Escherichia coli, ATCC25922, read-out: E. coli MIC (ATCC25922) (mg/L)
A. baumannii (ARC3495) = test: MIC against A. baumannii; conditions: Acinetobacter baumannii, read-out: A. baumannii MIC (ARC3495) (mg/L)
[1] = system: K. pneumoniae (ATCC700603); test: MIC against K. pneumoniae; conditions: Klebsiella pneumoniae, ATCC700603, read-out: K. pneumoniae MIC (ATCC700603)

Chain of P. aeruginosa PBP1a (Q07806 whole entry): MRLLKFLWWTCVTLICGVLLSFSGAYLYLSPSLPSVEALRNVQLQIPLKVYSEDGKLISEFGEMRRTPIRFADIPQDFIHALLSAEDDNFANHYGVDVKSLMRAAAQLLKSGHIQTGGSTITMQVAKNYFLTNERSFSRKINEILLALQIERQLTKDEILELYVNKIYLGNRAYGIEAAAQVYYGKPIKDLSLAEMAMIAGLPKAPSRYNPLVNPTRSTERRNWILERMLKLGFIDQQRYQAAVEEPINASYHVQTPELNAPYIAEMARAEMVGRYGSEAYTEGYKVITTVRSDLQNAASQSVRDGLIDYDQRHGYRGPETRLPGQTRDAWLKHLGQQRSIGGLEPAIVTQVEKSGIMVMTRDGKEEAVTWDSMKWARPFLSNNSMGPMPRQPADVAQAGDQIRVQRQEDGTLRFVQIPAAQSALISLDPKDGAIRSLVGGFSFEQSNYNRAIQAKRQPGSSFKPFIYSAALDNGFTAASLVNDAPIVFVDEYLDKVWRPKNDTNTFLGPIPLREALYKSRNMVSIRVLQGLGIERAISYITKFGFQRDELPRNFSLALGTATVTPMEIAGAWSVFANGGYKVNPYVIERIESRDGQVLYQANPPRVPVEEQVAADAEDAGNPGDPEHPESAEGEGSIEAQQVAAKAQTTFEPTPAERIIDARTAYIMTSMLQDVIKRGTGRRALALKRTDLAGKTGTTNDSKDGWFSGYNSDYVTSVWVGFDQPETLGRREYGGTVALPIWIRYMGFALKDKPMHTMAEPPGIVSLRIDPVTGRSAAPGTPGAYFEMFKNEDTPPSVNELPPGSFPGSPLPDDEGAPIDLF

SMILES	PBP1a acylation rate, k(on) (M^−1 · s^−1) (P. aeruginosa PBP1a)	PBP3 acylation rate, k(on) (M^−1 · s^−1) (P. aeruginosa PBP3)	MIC (P. aeruginosa WT (PAO1)) [µg/mL]	MIC (E. coli (ATCC25922)) [mg/L]	MIC (A. baumannii (ARC3495)) [mg/L]	MIC [1] [µg/mL]
CN/C(=N\OCC(=O)NCCN)[C@@H]1c2c(cnn2C)[C@@H]2CN1C(=O)N2OS(=O)(=O)O (racemic) [Example 58, (4R,8S)-8-((Z)—N′-(2-((2-aminoethyl)amino)-2-oxoethoxy)-N-methylcarbamimidoyl)-1-methyl-6-oxo-4,8-dihydro-1H-4,7-methanopyrazolo[3,4-e][1,3]diazepin-5(6H)-yl hydrogen sulfate]	* (* represents a k(on) < 100 M^−1 · s^−1)	*** (*** represents a k(on) > 10,000 M^−1 · s^−1)	< 8	8 to 16	8 to 16	8 to 16
CN/C(=N\OCC(=O)NCCCCN)[C@@H]1c2c(cnn2C)[C@@H]2CN1C(=O)N2OS(=O)(=O)O (racemic) [Example 59]	** (** represents a k(on) of 100 to 10,000 M^−1 · s^−1)	*** (*** represents a k(on) > 10,000 M^−1 · s^−1)	< 8	8 to 16 (≈ 16.9 to 33.7 µM)	8 to 16 (≈ 16.9 to 33.7 µM)	> 16
CN/C(=N\OCC(=O)NCCCC[C@H](N)C(=O)O)[C@@H]1c2c(cnn2C)[C@@H]2CN1C(=O)N2OS(=O)(=O)O (racemic) [Example 60]	* (* represents a k(on) < 100 M^−1 · s^−1)	*** (*** represents a k(on) > 10,000 M^−1 · s^−1)	8 to 16 (≈ 15 to 30 µM)	< 8	> 16	> 16
CN/C(=N\OCC(=O)NC1CNC1)[C@@H]1c2c(cnn2C)[C@@H]2CN1C(=O)N2OS(=O)(=O)O (racemic) [Example 61]	* (* represents a k(on) < 100 M^−1 · s^−1)	** (** represents a k(on) of 100 to 10,000 M^−1 · s^−1)	8 to 16 (≈ 17.4 to 34.9 µM)	< 8	> 16	> 16
CN/C(=N\OC(=O)NCCNC(N)=O)[C@@H]1c2c(cnn2C)[C@@H]2CN1C(=O)N2OS(=O)(=O)O [Example 42, (4R,8S)-1-methyl-8-((Z)—N-methyl-N′-(((2-ureidoethyl)carbamoyl)oxy)carbamimidoyl)-6-oxo-4,8-dihydro-1H-4,7-methanopyrazolo[3,4-e][1,3]diazepin-5(6H)-yl hydrogen sulfate]	** (** represents a k(on) of 100 to 10,000 M^−1 · s^−1)	*** (*** represents a k(on) > 10,000 M^−1 · s^−1)	8 to 16	8 to 16	8 to 16	> 16
CN(C(N)=O)/C(=N\OC(=O)NCCNC(N)=O)[C@@H]1c2c(cnn2C)[C@@H]2CN1C(=O)N2OS(=O)(=O)O [Example 43, (4R,8S)-8-((Z)—N-carbamoyl-N-methyl-N′-(((2-ureidoethyl)carbamoyl)oxy)carbamimidoyl)-1-methyl-6-oxo-4,8-dihydro-1H-4,7-methanopyrazolo[3,4-e][1,3]diazepin-5(6H)-yl hydrogen sulfate]	** (** represents a k(on) of 100 to 10,000 M^−1 · s^−1)	*** (*** represents a k(on) > 10,000 M^−1 · s^−1)	> 16	< 8	> 16	> 16
CN/C(=N\OC(=O)NCCNC(C)=O)[C@@H]1c2c(cnn2C)[C@@H]2CN1C(=O)N2OS(=O)(=O)O [Example 44, (4R,8S)-8-((Z)—N′-(((2-acetamidoethyl)carbamoyl)oxy)-N-methylcarbamimidoyl)-1-methyl-6-oxo-4,8-dihydro-1H-4,7-methanopyrazolo[3,4-e][1,3]diazepin-5(6H)-yl hydrogen sulfate]	** (** represents a k(on) of 100 to 10,000 M^−1 · s^−1)	*** (*** represents a k(on) > 10,000 M^−1 · s^−1)	> 16	8 to 16	> 16	> 16
CN/C(=N\OC(=O)NCCCCNC(=O)C(F)(F)F)[C@@H]1c2c(cnn2C)[C@@H]2CN1C(=O)N2OS(=O)(=O)O [Example 45, (4R,8S)-1-methyl-8-((Z)—N-methyl-N′-(((4-(2,2,2-trifluoroacetamido)butyl)carbamoyl)oxy)carbamimidoyl)-6-oxo-4,8-dihydro-1H-4,7-methanopyrazolo[3,4-e][1,3]diazepin-5(6H)-yl hydrogen sulfate]	** (** represents a k(on) of 100 to 10,000 M^−1 · s^−1)	*** (*** represents a k(on) > 10,000 M^−1 · s^−1)	> 16	< 8	> 16	> 16
CN/C(=N\OS(N)(=O)=O)[C@@H]1c2c(cnn2C)[C@@H]2CN1C(=O)N2OS(=O)(=O)O [Example 46, (4R,8S)-1-methyl-8-((Z)—N-methyl-N′-(sulfamoyloxy)carbamimidoyl)-6-oxo-4,8-dihydro-1H-4,7-methanopyrazolo[3,4-e][1,3]diazepin-5(6H)-yl hydrogen sulfate]	** (** represents a k(on) of 100 to 10,000 M^−1 · s^−1)	*** (*** represents a k(on) > 10,000 M^−1 · s^−1)	8 to 16	8 to 16	> 16	8 to 16
CN/C(=N\O)[C@@H]1c2c(cnn2CCNC(C)=O)[C@@H]2CN1C(=O)N2OS(=O)(=O)O [Example 48, (4R,8S)-1-(2-acetamidoethyl)-8-((Z)—N′-hydroxy-N-methylcarbamimidoyl)-6-oxo-4,8-dihydro-1H-4,7-methanopyrazolo[3,4-e][1,3]diazepin-5(6H)-yl hydrogen sulfate]	* (* represents a k(on) < 100 M^−1 · s^−1)	*** (*** represents a k(on) > 10,000 M^−1 · s^−1)	8 to 16	< 8	> 16	> 16
CN/C(=N\O)[C@@H]1c2c(cnn2CC(N)=O)[C@@H]2CN1C(=O)N2OS(=O)(=O)O [Example 50, (4R,8S)-1-(2-amino-2-oxoethyl)-8-((Z)—N′-hydroxy-N-methylcarbamimidoyl)-6-oxo-4,8-dihydro-1H-4,7-methanopyrazolo[3,4-e][1,3]diazepin-5(6H)-yl sulfate]	** (** represents a k(on) of 100 to 10,000 M^−1 · s^−1)	*** (*** represents a k(on) > 10,000 M^−1 · s^−1)	< 8	< 8	8 to 16	< 8
CN/C(=N\OC(=O)NCc1cn(C)[n+](C)c1)[C@@H]1c2c(cnn2C)[C@@H]2CN1C(=O)N2OS(=O)(=O)O [Example 54, 1,2-dimethyl-4-((Z)-3-((4R,8S)-1-methyl-6-oxo-5-(sulfooxy)-4,5,6,8-tetrahydro-1H-4,7-methanopyrazolo[3,4-e][1,3]diazepin-8-yl)-6-oxo-5-oxa-2,4,7-triazaoct-3-en-8-yl)-1H-pyrazol-2-ium]	* (* represents a k(on) < 100 M^−1 · s^−1)	*** (*** represents a k(on) > 10,000 M^−1 · s^−1)	8 to 16	< 8	> 16	> 16
